Among the data in patent US20240131168A1, “NAPHTHALENE RING-CONTAINING COMPOUND, PHARMACEUTICAL COMPOSITION CONTAINING SAME, AND USE THEREOF” (JIANGSU YAHONG MEDITECH CO., LTD., priority 2021, published 2024) are inhibition and IC50 values, retold here.

What all share (assay type): cell-based
One assay has as its system MCF-7 ER^Y537S. The assay is described as follows: CellTiter-Glo cell proliferation inhibition, MCF-7 ER^Y537S. The note with it: Homo sapiens, MCF7, 144 h; MCF-7 ER^Y537S (CTG), 6 days, starting concentration 10 μM; read-out: IH % max (maximum inhibition percentage). An outline of the steps: (§1)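 MCF-7, TamR-MCF-7, and CRISPR-edited MCF-7 ER D538G or Y537S cells were seeded at 1,000 or 2,000 cells/well in EMEM and cultured 24 h. They were then exposed to a 4-fold, 10-point series (top 10 µM before addition to wells) for 6 days or 72 h at 37 °C. CellTiter-Glo luminescence gave IC50 and maximum % inhibition.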
For orientation: In ATP-based viability assays light output follows the ATP content of the culture.

The subject of another assay is MCF-7. The assay is described as follows: CellTiter-Glo cell proliferation inhibition, MCF-7 (Effect Example 2). The note with it: Homo sapiens, MCF7, 144 h, MCF-7 (CTG), 6 days, starting concentration 10 μM; for inhibition at up to 10 µM: read-out: IH % max (maximum inhibition percentage). A digest of the protocol: as §1
The next assay has as its system TamR-MCF-7. The assay is described as follows: CellTiter-Glo cell proliferation inhibition, TamR-MCF-7. The conditions noted are these: 144 h; TamR-MCF-7 (CTG), 6 days, starting concentration 10 μM; read-out: IH % max (maximum inhibition percentage). A digest of the protocol:
as §1

A further assay deals with MDA-MB-468. Nature of the assay: CellTiter-Glo cell proliferation inhibition, MDA-MB-468. The note with it: Homo sapiens, 144 h; MDA-MB-468 (CTG), 6 days, starting concentration 10 μM; read-out: IH % max (maximum inhibition percentage).
Another assay has as its system MDA-MB-231. The assay is described as follows: CellTiter-Glo cell proliferation inhibition, MDA-MB-231. The note with it: Homo sapiens, 144 h; MDA-MB-231 (CTG), 6 days, starting concentration 10 μM; read-out: IH % max (maximum inhibition percentage).

The structures appear in SMILES notation. pIC50: −log10 of the molar value.

What is called inhibition is how much of the control response was suppressed. As usually defined, the pIC50 is the IC50 on a negative log10 scale, so that one unit is a factor of ten. In the case of `C[C@@H]1CN(CCOCC(=O)N2CCN(c3ccc4c(c3)C(=O)N(C3CCC(=O)NC3=O)C4=O)CC2)[C@@H](C)CN1CCOc1ccc(Oc2c(-c3ccc(S(C)(=O)=O)cc3)ccc3cc(O)ccc23)cc1` (stereo partly drawn) [Compound D15, 2-(2,6-dioxopiperidin-3-yl)-5-(4-(2-(2-((2S,5R)-4-(2-(4-((6-hydroxy-2-(4-(methylsulfonyl)phenyl)naphthalen-1-yl)oxy)phenoxy)ethyl)-2,5-dimethylpiperazin-1-yl)ethoxy)acetyl)piperazin-1-yl)isoindoline-1,3-dione], the results for the inhibition at up to 10 µM in the assay with MCF-7 ER^Y537S and with MCF-7 were 46% and 51%, respectively. This molecule also gave a pIC50 in the assay on MCF-7 of 6.31.

For the molecule `CS(=O)(=O)c1ccc(-c2ccc3cc(O)ccc3c2Oc2ccc(OCCOCCOCCOCCOc3ccc4c(c3)C(=O)N(C3CCC(=O)NC3=O)C4)cc2)cc1` (stereo not drawn) [Compound D35, 3-(6-(2-(2-(2-(2-(4-((6-hydroxy-2-(4-(methylsulfonyl)phenyl)naphthalen-1-yl)oxy)phenoxy)ethoxy)ethoxy)ethoxy)ethoxy)-1-oxoisoindolin-2-yl)piperidine-2,6-dione], the inhibition at up to 10 µM in the assay with MCF-7 came to 45%.

For the molecule `CS(=O)(=O)c1ccc(-c2ccc3cc(O)ccc3c2Oc2ccc(OCCOCCOCCOCCN3CCN(c4ccc5c(c4)C(=O)N(C4CCC(=O)NC4=O)C5=O)CC3)cc2)cc1` (stereo not drawn) [Compound D19], the inhibition at up to 10 µM in the assay with TamR-MCF-7 was found to be 39%; in the assay on MCF-7, 44%.

For the molecule `C[C@@H]1CN(CCOc2ccc(Oc3c(-c4ccc(S(C)(=O)=O)cc4)ccc4cc(O)ccc34)cc2)[C@@H](C)CN1CCOCC(=O)N1CCN(c2ccc3c(c2)CN(C2CCC(=O)NC2=O)C3=O)CC1` (stereo partly drawn) [Compound D9, 3-(5-(4-(2-(2-((2R,5S)-4-(2-(4-((6-hydroxy-2-(4-(methylsulfonyl)phenyl)naphthalen-1-yl)oxy)phenoxy)ethyl)-2,5-dimethylpiperazin-1-yl)ethoxy)acetyl)piperazin-1-yl)-1-oxoisoindolin-2-yl)piperidine-2,6-dione], the inhibition at up to 10 µM was determined as 31% with TamR-MCF-7, 34% in the assay on MCF-7 ER^Y537S, 60% in the assay on MDA-MB-468 and 60% in the assay on MCF-7. The same molecule showed a pIC50 with MCF-7 of 6.62.

As for `CCN(CCOCCOCCN1CCN(c2ccc3c(c2)C(=O)N(C2CCC(=O)NC2=O)C3=O)CC1)CCOc1ccc(Oc2c(-c3ccc(S(C)(=O)=O)cc3)ccc3cc(O)ccc23)cc1` (stereo not drawn) [Compound D28, 2-(2,6-dioxopiperidin-3-yl)-5-(4-(2-(2-(2-(ethyl(2-(4-((6-hydroxy-2-(4-(methylsulfonyl)phenyl)naphthalen-1-yl)oxy)phenoxy)ethyl)amino)ethoxy)ethoxy)ethyl)piperazin-1-yl)isoindoline-1,3-dione], the inhibition at up to 10 µM in the assay with TamR-MCF-7 worked out at 42%; in the assay on MCF-7 ER^Y537S it was 49%; in the assay on MCF-7, 53%; in the assay with MDA-MB-231, 68%. Further, the pIC50 in the assay on MCF-7 was 6.67.

Take `CS(=O)(=O)c1ccc(-c2ccc3cc(O)ccc3c2Oc2ccc(OCCOCCOCCOCCN3CCN(c4ccc5c(c4)C(=O)N(C4CCC(=O)NC4=O)C5)CC3)cc2)cc1` (stereo not drawn) [Compound D21]: in the assay with MCF-7, the inhibition at up to 10 µM was 44%.

Consider `CCN(CCCCCN(C)CC(=O)N1CCN(c2ccc3c(c2)C(=O)N(C2CCC(=O)NC2=O)C3=O)CC1)CCOc1ccc(Oc2c(-c3ccc(S(C)(=O)=O)cc3)ccc3cc(O)ccc23)cc1` (stereo not drawn) [Compound D31, 2-(2,6-dioxopiperidin-3-yl)-5-(4-(N-(5-(ethyl(2-(4-((6-hydroxy-2-(4-(methylsulfonyl))phenyl)naphthalen-1-yl)oxy)phenoxy)ethyl)aminopentyl)-N-methylglycyl)piperazin-1-yl)isoindoline-1,3-dione], for which the inhibition at up to 10 µM came to 73% with MCF-7 ER^Y537S, 100% with MDA-MB-468, 32% in the assay with MCF-7 and 56% in the assay on MDA-MB-231.

Turning to `CS(=O)(=O)c1ccc(-c2ccc3cc(O)ccc3c2Oc2ccc(OCCCCN3CCN(c4ccc5c(c4)CN(C4CCC(=O)NC4=O)C5=O)CC3)cc2)cc1` (stereo not drawn) [Compound D59, 3-(5-(4-(4-(4-((6-hydroxy-2-(4-(methylsulfonyl)phenyl)naphthalen-1-yl)oxy)phenoxy)butyl)piperazin-1-yl)-1-oxoisoindolin-2-yl)piperidine-2,6-dione], the inhibition at up to 10 µM in the assay with MCF-7 is 37%.

For the molecule `CS(=O)(=O)c1ccc(-c2ccc3cc(O)ccc3c2Oc2ccc(N3CCN(CCCCCOCC(=O)N4CCN(c5ccc6c(c5)CN(C5CCC(=O)NC5=O)C6=O)CC4)CC3)cc2)cc1` (stereo not drawn) [Compound D11, 3-(5-(4-(2-((5-(4-(4-((6-hydroxy-2-(4-(methylsulfonyl)phenyl)naphthalen-1-yl)oxy)phenyl)piperazin-1-yl)pentyl)oxy)acetyl)piperazin-1-yl)-1-oxoisoindolin-2-yl)piperidine-2,6-dione], the results for the inhibition at up to 10 µM with MCF-7 ER^Y537S and with MCF-7 were 52% and 45%, respectively.

With `CCN(CCOc1ccc(Oc2c(-c3ccc(S(C)(=O)=O)cc3)ccc3cc(O)ccc23)cc1)CC(=O)N1CCN(c2ccc3c(c2)C(=O)N(C2CCC(=O)NC2=O)C3=O)CC1` (stereo not drawn) [Compound D8, 2-(2,6-dioxopiperidin-3-yl)-5-(4-(N-ethyl-N-(2-(4-((6-hydroxy-2-(4-(methylsulfonyl)phenyl)naphthalen-1-yl)oxy)phenoxy)ethyl)glycyl)piperazin-1-yl)isoindoline-1,3-dione], the inhibition at up to 10 µM in the assay with TamR-MCF-7 turned out to be 35%; in the assay on MCF-7 ER^Y537S it was 33%; in the assay on MDA-MB-468, 68%; in the assay with MCF-7, 56%.

With `CS(=O)(=O)c1ccc(-c2ccc3cc(O)ccc3c2Oc2ccc(OCCOCCOCCN3CCN(c4ccc5c(c4)C(=O)N(C4CCC(=O)NC4=O)C5)CC3)cc2)cc1` (stereo not drawn) [Compound D22, 3-(6-(4-(2-(2-(2-(4-((6-hydroxy-2-(4-(methylsulfonyl)phenyl)naphthalen-1-yl)oxy)phenoxy)ethoxy)ethoxy)ethyl)piperazin-1-yl)-1-oxoisoindolin-2-yl)piperidine-2,6-dione], the values for the inhibition at up to 10 µM in the assay with TamR-MCF-7, with MCF-7 and in the assay with MDA-MB-231 were 33%, 38% and 36%, respectively.

Regarding `CS(=O)(=O)c1ccc(-c2ccc3cc(O)ccc3c2Oc2ccc(OCCOCCOCCN3CCN(c4ccc5c(c4)CN(C4CCC(=O)NC4=O)C5=O)CC3)cc2)cc1` (stereo not drawn) [Compound D30], in the assay on TamR-MCF-7, the inhibition at up to 10 µM was 30%. In the assay with MCF-7, the pIC50 was 6.27 and the inhibition at up to 10 µM amounted to 55%.

With `CCN(CCOc1ccc(Oc2c(-c3ccc(S(C)(=O)=O)cc3)ccc3cc(O)ccc23)cc1)C(=O)c1ccc(CCC2CCN(C3CCN(c4ccc5c(c4)C(=O)N(C4CCC(=O)NC4=O)C5=O)CC3)CC2)cc1` (stereo not drawn) [Compound D34, 4-(2-(1′-(2-(2,6-dioxopiperidin-3-yl)-1,3-dioxoisoindolin-5-yl)-[1,4′-bipiperidin]-4-yl)ethyl)-N-ethyl-N-(2-(4-((6-hydroxy-2-(4-(methylsulfonyl)phenyl)naphthalen-1-yl)oxy)phenoxy)ethyl)benzamide], the inhibition at up to 10 µM in the assay with TamR-MCF-7 came out at 41%; with MCF-7 ER^Y537S, 60%; in the assay with MCF-7, 52%; in the assay on MDA-MB-231, 37%. This molecule showed a pIC50 with MCF-7 of 7.16.
